From patent US20150368195A1, “INDOLINE COMPOUNDS FOR TREATMENT AND/OR PREVENTION OF INFLAMMATION DISEASES” (Taipei Medical University, priority 2014, published 2015)
Read-outs that look alike come from different tables or passages of the source. One block for each compound: values may come before it.

Tests used:
[1] = test system: nitric oxide (NO); assay: LPS-induced nitric oxide production in RAW 264.7 macrophages; format: cell-based, Mouse; settings: for IC50: Mus musculus, RAW264.7, LPS-stimulated RAW 264.7 macrophages, mean ± SEM, three experiments
Experimental: Nitrite concentration was determined using a dilution of sodium nitrite as a standard.
(§1) Furthermore, the anti-inflammatory effects of MPT0G009 was evaluated. […] These supernatants were then assayed for PGE2, NO, and IL-6.

[2] = test system: tumor necrosis factor-α (TNF-α); assay: LPS-induced TNF-α production in RAW 264.7 macrophages; settings: Mus musculus, RAW264.7, read-out: IC50 TNF-α
[3] = test system: prostaglandin E2 (PGE2); assay: LPS-induced PGE2 production in RAW 264.7 macrophages; format: cell-based, Mouse; settings: for IC50: Mus musculus, RAW264.7, LPS-stimulated RAW 264.7 macrophages, mean ± SEM, three experiments
Experimental: as §1

[4] = test system: interleukin-6 (IL-6); assay: LPS-induced IL-6 production in RAW 264.7 macrophages; settings: Mus musculus, RAW264.7, read-out: IC50 IL-6
[5] = test system: adjuvant-induced arthritis; assay: adjuvant-induced arthritis (AIA) model; settings: day 21, ELISA; MPT0G009 25 mg/kg, SAHA 200 mg/kg, indomethacin 1 mg/kg
Experimental: (FIG. 8B) Hind paw volumes in the indicated group of rats were measured using a digital plethysmometer on the indicated day after AIA induction. […] (FIG. 8D) Serum levels of interleukin (IL)-1β (left panel) and IL-6 (right panel) on day 21 as measured by enzyme-linked immunosorbent assay (ELISA). […] (FIG. 8F) The bone mineral density (BMD, in mg/mm^3) and the bone mineral content (BMC, in mg) values for the bone tissue of the tarsus were analyzed using CT Analysis Software.

[6] = test system: carrageenan-induced hind paw edema; assay: carrageenan-induced hind paw edema; settings: for carrageenan-induced hind paw edema: oral, 1 h before carrageenan, compound 9 25 mg/kg, SAHA 200 mg/kg, Indomethacin 5 mg/kg, measured 3 h after
Experimental: A 0.5% (w/v) suspension of carrageenan in normal saline was administered to male Wistar rats (7-weeks) by intradermal injection into the base of the right hind paw. […] A positive control group was included in which rats were pretreated with 5 mg/kg Indomethacin. […] The results are expressed as the mean±SEM, with n=5. *p<0.05 compared to the control group; #p<0.05 for the comparison of the indicated groups.
Animals were divided into four groups (n=5). 0.5% (w/v) suspension of carrageenan in normal saline was administered to male Wistar rats (7-weeks) by intradermal injection into the base of the right hind paw. […] A positive control group was included in which rats were pretreated with 5 mg/kg Indomethacin. Three hours after carrageenan administration, the thickness and volume of the right hind paw were measured by digital caliper and digital plethysmometer (Diagnostic & Research Instruments CO., Ltd, Taipei, Taiwan), respectively.

[7] = test system: RA-FLS; assay: SRB anti-proliferation assay; format: cell-based; settings: 24 or 48 h incubation
Excerpt: (§2) (FIG. 1A) Structure of MPT0G009. […] Results in (FIGS. 1B-E) and (FIG. 1G) are means±SEM's for three independent experiments, *p<0.05 and **p<0.01 compared with no added inhibitor.

[8] = test system: HIG-82 synoviocytes; assay: SRB anti-proliferation assay; format: cell-based; settings: 24 or 48 h incubation
Excerpt: as §2

[9] = test system: RAW264.7 macrophages; assay: M-CSF/RANKL-induced osteoclast formation; format: cell-based, Mouse; settings: 5 nM MPT0G009 or 50 nM SAHA; M-CSF/RANKL 50 ng/mL, 5 days
Experimental: Cells were then tartrate resistant acid phosphatase (TRAP) stained, and the numbers of TRAP-positive multinuclear cells were counted. […] Images are at ×100 magnification, and the arrows indicate differentiated osteoclasts. (FIG. 6C) RAW264.7 cells were treated as in (FIG. 6B), then incubated with a fluorescein isothiocyanate (FITC)-conjugated anti-CD51/61 antibody and analyzed by flow cytometry. (FIGS. 6D and 6E) RAW264.7 cells (1×10^5) were transfected with 1 μg of pGL4.32[luc2P/NF-κB-RE/Hygro] (FIG. 6D) or pGL4.30[luc2P/NFAT-RE/Hygro] (FIG. 6E) for 24 h and then incubated for 30 min with or without MPT0G009 (5 nM). Then RANKL (50 ng/mL) was added and incubation was continued for an additional 24 h, after which luciferase activity was determined. Results in (FIGS. 6A, 6D, and 6E) are the means±SEM's for three independent experiments. **p<0.01 compared with the indicated controls.
Bone destruction is one characteristic of RA pathogenesis, resulting in joint dysfunction. Differentiation of mouse macrophages osteoclast-like cells can be induced in the presence of M-CSF and RANKL, which has been used as a model to investigate osteoclast differentiation. […] Subsequently, multinucleate tartrate resistant acid phosphatase (TRAP)-positive cells were counted.

[10] = test system: IL-6; assay: IL-1β-induced IL-6 production by RA-FLS; format: cell-based; settings: MPT0G009 0.1, 1, 10 μM; SAHA 0.3, 3, 30 μM; IL-1β 10 ng/mL 24 h
Experimental: as §2, §1

[11] = rats, SAHA (reference 30), cited from earlier work
[12] = test system: p21; assay: p21 expression by flow cytometry or western blot in RA-FLS; format: cell-based; settings: 24 h, 1 μM MPT0G009 or 3 μM SAHA
Excerpt: as §2

[13] = test system: prostaglandin E2 (PGE2); assay: LPS-induced PGE2 production by RA-FLS; format: cell-based; settings: MPT0G009 0.1, 1, 10 μM; SAHA 0.3, 3, 30 μM; LPS 25 ng/mL 24 h
Experimental: as §2, §1

[14] = test system: RA-FLS; assay: cell cycle distribution by flow cytometry (propidium iodide); format: cell-based; settings: 24 h
Excerpt: as §2

[15] = test system: cyclooxygenase-2 (COX-2); assay: LPS-induced COX-2 protein expression, Western blot, RAW264.7; format: cell-based, Mouse; settings: RAW264.7, 0.1-10 μM, LPS 25 ng/mL 24 h
Experimental: (§3) Then the cells were harvested and whole cell extracts were prepared for Western blot analysis for iNOS and COX-2. The relative protein expressions are presented as mean±SEM for four replicates. *p<0.05 compared to the LPS-treated group.

[16] = test system: HDAC3; assay: HDAC isoform protein levels, Western blot, RA-FLS; format: cell-based; settings: 12 or 24 h; 1 μM MPT0G009 or 30 μM SAHA
Experimental: Then cells were harvested and cell lysates were prepared for Western blot analysis of the indicated proteins. (FIG. 5C) RA-FLS were incubated for 1 h with or without the proteasome inhibitor, MG132 (1 μM). […] Results shown are representative of three independent experiments.

[17] = test system: inducible nitric oxide synthase (iNOS); assay: LPS-induced iNOS protein expression, Western blot, RAW264.7; format: cell-based, Mouse; settings: RAW264.7, 0.1-10 μM, LPS 25 ng/mL 24 h
Experimental: as §3

[18] = MPT0G009 0.1, 1, 10 μM, SAHA 0.3, 3, 30 μM, LPS 25 ng/mL 24 h

IC50 [1]: > 10 µM | IC50 [3]: 5.13 ± 0.48 µM | IC50 [4]: 0.17 µM
SMILES: O=C(/C=C/c1ccc2c(ccn2S(=O)(=O)c2ccccc2)c1)NO [Compound 6]
IC50 [2]: 3.73 ± 0.26 µM

IC50 [1]: 4.64 ± 0.12 µM | IC50 [3]: 1.68 ± 0.27 µM | IC50 [4]: 0.02 µM
SMILES: O=C(C=Cc1ccc2c(c1)CCN2S(=O)(=O)c1ccccc1)NO [Compound 7, 3-(1-Benzenesulfonyl-2,3-dihydro-1H-indol-5-yl)-N-hydroxyacrylamide]
IC50 [2]: 0.99 ± 0.07 µM

IC50 [1]: 7.35 ± 0.83 µM | IC50 [3]: 1.36 ± 0.29 µM | melting point: 156 to 157 °C | IC50 [4]: 0.02 µM
SMILES: COc1cccc(S(=O)(=O)N2CCc3cc(C=CC(=O)NO)ccc32)c1 [Compound 8, 3-[1-(3-Methoxybenzenesulfonyl)-2,3-dihydro-1H-indol-5-yl]-N-hydroxyacrylamide]
IC50 [2]: 1.09 ± 0.12 µM

IC50 [1]: 7.31 ± 0.66 µM | IC50 [3]: 1.9 ± 0.21 µM | melting point: 192 to 193 °C | IC50 [4]: 0.01 µM
SMILES: COc1ccc(S(=O)(=O)N2CCc3cc(C=CC(=O)NO)ccc32)cc1OC [Compound 10, 3-[1-(3,4-Dimethoxybenzenesulfonyl)-2,3-dihydro-1H-indol-5-yl]-N-hydroxyacrylamide]
IC50 [2]: 0.62 ± 0.12 µM

IC50 [1]: 4.41 ± 0.31 µM | IC50 [3]: 1.31 ± 0.16 µM | melting point: 129 to 131 °C | IC50 [4]: 0.03 µM
SMILES: O=C(C=Cc1ccc2c(c1)CCN2S(=O)(=O)c1ccc(F)cc1)NO [Compound 11, 3-[1-(4-Fluorobenzenesulfonyl)-2,3-dihydro-1H-indol-5-yl]-N-hydroxyacrylamide]
IC50 [2]: 1.04 ± 0.25 µM

IC50 [1]: 5.49 ± 0.48 µM | IC50 [3]: 1.04 ± 0.15 µM | melting point: 159 to 160 °C | IC50 [4]: 0.02 µM
SMILES: O=C(C=Cc1ccc2c(c1)CCN2S(=O)(=O)c1ccc(Cl)cc1)NO [Compound 12, 3-[1-(4-Chlorobenzenesulfonyl)-2,3-dihydro-1H-indol-5-yl]-N-hydroxyacrylamide]
IC50 [2]: 1.01 ± 0.11 µM

IC50 [1]: 3.11 ± 0.37 µM | IC50 [3]: 1.76 ± 0.26 µM | melting point: 163 to 165 °C | IC50 [4]: 0.02 µM
SMILES: O=C(C=Cc1ccc2c(c1)CCN2S(=O)(=O)c1ccc([N+](=O)[O-])cc1)NO [Compound 13, 3-[1-(4-Nitrobenzenesulfonyl)-2,3-dihydro-1H-indol-5-yl]-N-Hydroxyacrylamide]
IC50 [2]: 1.37 ± 0.18 µM

IC50 [1]: > 10 µM | IC50 [3]: > 10 µM | melting point: 97 to 99 °C | IC50 [4]: > 10 µM
SMILES: Nc1ccc(S(=O)(=O)N2CCc3cc(C=CC(=O)NO)ccc32)cc1 [Compound 14, 3-[1-(4-Aminobenzenesulfonyl)-2,3-dihydro-1H-indol-5-yl]-N-hydroxyacrylamide]
IC50 [2]: > 10 µM

IC50 [1]: > 10 µM | IC50 [3]: 2.7 ± 0.43 µM | melting point: 142 to 143 °C | IC50 [4]: 0.09 µM
SMILES: CN(C)c1cccc2c(S(=O)(=O)N3CCc4cc(C=CC(=O)NO)ccc43)cccc12 [Compound 15, 3-[1-(5-Dimethylaminonaphthalene-1-sulfonyl)-2,3-dihydro-1H-indol-5-yl]-N-hydroxyacrylamide]
IC50 [2]: 2.11 ± 0.28 µM

SMILES: COc1ccc2c(c1)c(CC(=O)O)c(C)n2C(=O)c1ccc(Cl)cc1 [Indomethacin, reference compound]
serum levels of IL-1β [5]: significant decreases | serum levels of IL-6 [5]: significant decreases | carrageenan-induced hind paw edema [6]: suppressed

SMILES: O=C(CCCCCCC(=O)Nc1ccccc1)NO [SAHA, Suberanilohydroxamic Acid, reference compound]
NO production by RAW264.7 cells [1, 18]: inhibited | PGE2 production by RAW264.7 cells [3, 18]: inhibited | serum levels of IL-1β [5]: significant decreases | serum levels of IL-6 [5]: significant decreases | proliferation of RA-FLS [7]: concentration-dependent anti-proliferative effects | proliferation of HIG-82 synoviocytes [8]: concentration-dependent anti-proliferative effects | expression of osteoclast-specific marker CD51/61 [9]: no effect | formation of M-CSF/RANKL-induced TRAP-positive cells [9]: no effect | IL-6 production by RA-FLS [10]: inhibited | AUC(0-inf) ([11]; iv 2 mg/kg): 278 ng·h/mL | CL ([11]; iv 2 mg/kg): 134 mL/min/kg | T1/2 ([11]; iv 2 mg/kg): 38.4 min | Vd ([11]; iv 2 mg/kg): 3.92 L/kg | AUC(0-inf) ([11]; po 5 mg/kg): 49.40 ng·h/mL | Cmax ([11]; po 5 mg/kg): 83.90 ng/mL | F ([11]; po 5 mg/kg): 6.9% | T1/2 ([11]; po 5 mg/kg): 67.8 min | Tmax ([11]; po 5 mg/kg): 10.2 min | expression of p21 [12]: significantly increased | PGE2 production by RA-FLS [13]: inhibited | subG1 peak (cellular apoptosis) ([14]; MPT0G009 1-1000 nM, SAHA 3-3000 nM): did not increase the subG1 peak | G0/G1 phase arrest ([14]; all concentrations of both agents): G0/G1 phase arrest was observed | COX-2 protein expression [15]: significantly inhibited | COX-2 protein expression ([15]; listed as SAHA (1)): concentration-dependently inhibitory effects | levels of HDAC3 in RA-FLS [16]: no effect | paw thickness reduced compared to control ([6]; SAHA 200 mg/kg oral, 3 h after carrageenan): 15.7% | carrageenan-induced hind paw edema [6]: significantly inhibited | carrageenan-induced hind paw edema ([6]; listed as SAHA (1)): suppress | iNOS protein expression [17]: significantly inhibited | iNOS protein expression ([17]; listed as SAHA (1)): concentration-dependently inhibitory effects
